In paper PMC9996794 (ACS Omega, 2023):

What was measured:
[1] = cited from earlier work
[2] = tested on: bovine serum albumin (BSA); conditions: cited from earlier work
[3] = tested on: L929 cells; experiment: Cytotoxicity, MTT assay; assay type: cell-based; conditions: read-out: IC50 (best-fit), 48 h (method b31 says 24 h)
[4] = Thermogravimetric analysis; assay type: physicochemical; conditions: TGA, nitrogen, 10 °C·min^–1
[5] = Solubility in water or ethanol by the conductivity method; conditions: 25 °C
[6] = Critical micelle concentration from conductivity measurements; assay type: physicochemical; conditions: 25 °C
[7] = Pharmacokinetic experiments in mice; assay type: in vivo; conditions: printed as 'higher than that of naproxen'
[8] = cited from earlier work; remark: listed apart in the source

beginning weight loss temperature [4]	mass of solute per 100 g of solvent ([5]; ethanol)	mass of solute per 100 g of solvent ([5]; water)	critical micelle concentration ([6]; ethanol)	critical micelle concentration ([6]; water)	cmax [7]	Structure (SMILES)	increase of permeation of naproxen through the skin [1]	binding affinity for BSA relative to parent naproxen [2]	IC50 [3]	improvement of dissolution rates compared with the original naproxen [8]
–	–	–	–	–	–	CC(C)OC(=O)[C@@H]1CCCN1.COc1ccc2cc([C@H](C)C(=O)O)ccc2c1 [L-proline isopropyl ester naproxen]	almost four times	–	–	–
–	–	–	–	–	–	CC(C)OC(=O)[C@@H](N)C(C)C.COc1ccc2cc([C@H](C)C(=O)O)ccc2c1 [L-valine isopropyl ester naproxen]	–	about 1 order of magnitude lower	–	–
147.05 °C	97.61 g·100 g^–1	61.6251 g·100 g^–1	6.25 × 10^–6 mol·L^–1	3.05 × 10^–5 mol·L^–1	–	CCCCCCCCCCCCCC[N+](C)(C)Cc1ccccc1.COc1ccc2cc([C@H](C)C(=O)[O-])ccc2c1 [[Ben][Nap], tetradecyldimethylbenzyl ammonium naproxen]	–	–	111 µM	–
171.93 °C	70.23 g·100 g^–1	124.51 g·100 g^–1	3.48 × 10^–6 mol·L^–1	3.75 × 10^–5 mol·L^–1	23.051 mg·L^–1	COc1ccc2cc(C(C)C(=O)[O-])ccc2c1.C[N+](C)(C)CCO (stereo not shown) [[Ch][Nap], choline naproxen]	–	–	783 µM	–
218.79 °C	82.00 g·100 g^–1	112.56 g·100 g^–1	4.89 × 10^–6 mol·L^–1	5.68 × 10^–5 mol·L^–1	–	CCCCCCCCn1cc[n+](C)c1.COc1ccc2cc(C(C)C(=O)[O-])ccc2c1 (stereo not shown) [[Omim][Nap], 1-octyl-3-methylimidazole naproxen]	–	–	174 µM	–
–	–	–	–	–	–	CCCC[P+](CCCC)(CCCC)CCCC.COc1ccc2cc(C(C)C(=O)[O-])ccc2c1 [[Tbp][Nap], tetrabutyl phosphonium naproxen]	–	–	–	up to 1000 times
